Source: PubChem BioAssay (NCI)
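Five compound concentrations were applied to cells in 96-well plates for 48 hours; endpoints were derived by simple linear interpolation of the resulting dose-response curve. GI50 marks 50% less growth. Definition used: TGI = concentration required for complete inhibition of growth.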

Key:
Assay in all cases: NCI tumour cell line growth inhibition, 48 h
[1] = test system: MALME-3M melanoma
[2] = test system: OVCAR-8 ovarian
[3] = test system: A549 NSCLC
[4] = test system: HOP-92 NSCLC
[5] = test system: MDA-MB-435
[6] = test system: U251 CNS
[7] = test system: SN12C renal
[8] = test system: MOLT-4 leukemia
[9] = test system: SK-MEL-5 melanoma
[10] = test system: SNB-19 CNS
[11] = test system: UACC-257 melanoma
[12] = test system: TK-10 renal
[13] = test system: CAKI-1 renal
[14] = test system: HCC-2998 colon
[15] = test system: NCI-H226 lung
[16] = test system: NCI-H460 lung
[17] = test system: MCF7 breast
[18] = test system: UACC-62 melanoma
[19] = test system: COLO 205 colon
[20] = test system: A498 renal
[21] = test system: 786-0 renal
[22] = test system: SNB-75 CNS
[23] = test system: NCI/ADR-RES ovarian
[24] = test system: SK-OV-3 ovarian
[25] = test system: LOX IMVI melanoma
[26] = test system: PC-3 prostate
[27] = test system: SF-268 CNS
[28] = test system: EKVX NSCLC
[29] = test system: HCT-15 colon
[30] = test system: KM12 colon
[31] = test system: M14 melanoma
[32] = test system: HT29 colon
[33] = test system: MDA-MB-231 breast
[34] = test system: HCT-116 colon
[35] = test system: DU-145 prostate
[36] = test system: HOP-62 NSCLC
[37] = test system: SR leukemia
[38] = test system: ACHN renal
[39] = test system: HL-60(TB) leukemia
[40] = test system: NCI-H522 lung
[41] = test system: UO-31 renal
[42] = test system: RPMI-8226 leukemia
[43] = test system: NCI-H23 lung
[44] = test system: OVCAR-3 ovarian
[45] = test system: K-562 leukemia
[46] = test system: SW-620 colon
[47] = test system: SF-295 CNS
[48] = test system: BT-549 breast
[49] = test system: OVCAR-4 ovarian
[50] = test system: SF-539 CNS
[51] = test system: SK-MEL-28 melanoma
[52] = test system: T-47D breast
[53] = test system: HS 578T breast
[54] = test system: SK-MEL-2 melanoma
[55] = test system: CCRF-CEM leukemia
[56] = test system: RXF 393 renal
[57] = test system: IGROV1 ovarian

O=C1NCCS(=O)(=O)/C1=C\C=C\c1cccc(C(F)(F)F)c1
GI50 [1]: 4.02 µM | TGI [1]: 17.2 µM | GI50 [2]: 3.46 µM | TGI [2]: 16.8 µM | GI50 [3]: 2980 nM | TGI [3]: 11.6 µM | GI50 [4]: 5.09 µM | TGI [4]: 16.4 µM | GI50 [5]: 1810 nM | TGI [5]: 6.47 µM | GI50 [6]: 1670 nM | TGI [6]: 3.86 µM | GI50 [7]: 3.08 µM | TGI [7]: 12 µM | GI50 [8]: 2050 nM | TGI [8]: 9.54 µM | GI50 [9]: 1710 nM | TGI [9]: 3.36 µM | GI50 [10]: 2620 nM | TGI [10]: 10.7 µM | GI50 [11]: 1830 nM | TGI [11]: 9.22 µM | GI50 [12]: 3.95 µM | TGI [12]: 13 µM | GI50 [13]: 2220 nM | TGI [13]: 10.2 µM | GI50 [14]: 1930 nM | TGI [14]: 3.72 µM | GI50 [15]: 2750 nM | TGI [15]: 7.65 µM | GI50 [16]: 2730 nM | TGI [16]: 7.68 µM | GI50 [17]: 188 nM | TGI [17]: 11 µM | GI50 [18]: 1460 nM | TGI [18]: 3.89 µM | GI50 [19]: 2310 nM | TGI [19]: 5.2 µM | GI50 [20]: 2510 nM | TGI [20]: 5.31 µM | GI50 [21]: 2640 nM | TGI [21]: 7.67 µM | GI50 [22]: 4.36 µM | TGI [22]: 20.1 µM | GI50 [23]: 2810 nM | TGI [23]: 14.2 µM | GI50 [24]: 5.83 µM | TGI [24]: 18.3 µM | GI50 [25]: 1230 nM | TGI [25]: 2610 nM | GI50 [26]: 2790 nM | TGI [26]: 11.4 µM | GI50 [27]: 3.28 µM | TGI [27]: 15 µM | GI50 [28]: 4.31 µM | TGI [28]: 16.5 µM | GI50 [29]: 1560 nM | TGI [29]: 5.29 µM | GI50 [30]: 2360 nM | TGI [30]: 6.67 µM | GI50 [31]: 1890 nM | TGI [31]: 7.24 µM | GI50 [32]: 2300 nM | TGI [32]: 5.38 µM | GI50 [33]: 4.21 µM | TGI [33]: 15.9 µM | GI50 [34]: 1410 nM | TGI [34]: 3.72 µM | GI50 [35]: 2960 nM | TGI [35]: 13.6 µM | GI50 [36]: 3.72 µM | TGI [36]: 12.7 µM | GI50 [37]: 539 nM | TGI [37]: > 100 µM | GI50 [38]: 1990 nM | TGI [38]: 4.52 µM | GI50 [39]: 2400 nM | TGI [39]: 7.26 µM | GI50 [40]: 1430 nM | TGI [40]: 3.19 µM | GI50 [41]: 1760 nM | TGI [41]: 3.79 µM | GI50 [42]: 2190 nM | TGI [42]: 8.31 µM | GI50 [43]: 1940 nM | TGI [43]: 8.02 µM | GI50 [44]: 2850 nM | TGI [44]: 11.4 µM | GI50 [45]: 2480 nM | TGI [45]: 25.7 µM | GI50 [46]: 2650 nM | TGI [46]: 7.56 µM | GI50 [47]: 3.71 µM | TGI [47]: 15 µM | GI50 [48]: 2400 nM | TGI [48]: 8.54 µM | GI50 [49]: 4.84 µM | TGI [49]: 19.2 µM | GI50 [50]: 2830 nM | TGI [50]: 10.1 µM | GI50 [51]: 2920 nM | TGI [51]: 11.3 µM | GI50 [52]: 3.51 µM | TGI [52]: 17.3 µM | GI50 [53]: 6.81 µM | TGI [53]: 30.7 µM | GI50 [54]: 2620 nM | TGI [54]: 9.77 µM | GI50 [55]: 2130 nM | TGI [55]: 10.7 µM | GI50 [56]: 2520 nM | TGI [56]: 5.37 µM | GI50 [57]: 2610 nM | TGI [57]: 11.8 µM
